Data reported in patent publication US11485725B2, “Derivatives of piperlongumine and uses thereof” (Auransa Inc., priority 2017, dated 2022).
Where two headings read alike, the source gives them in different places.

What was measured:
DU4475 = experiment: In vitro cell viability assay (CellTiter-Glo, ATP levels), triple negative breast cancer cells; type: cell-based; conditions: Homo sapiens, DU-4475, 168 h, read-out: DU4475 IC50
Experimental: (§1) In Vitro Cell Viability Assay
(§2) The present disclosure provides a method for inhibiting cell viability, as measured by ATP levels. The method for inhibiting cell viability is drawn to contacting various cancer cells with the compounds described herein at various concentrations. The cancer cell lines were maintained in culture conditions at 37° C. in an atmosphere of 5% CO2 in air. The cells growing in an exponential growth phase were harvested and counted for plating. Compounds were incubated in two cancer cell types representing multiple myeloma (MOLP-8) and triple negative breast cancer (DU4475). Cells were plated at an optimized cell numbers per well in 96-well plates and allowed to attach to the plates overnight at approximately 80% confluency.
(§3) After addition of compounds, plates were incubated for 7-day. At the end of incubation period on day 8, media was removed and replaced with a solution of CellTiter-Glo™ reagent (Promega®) according to protocol. Luminescence was read using an EnVision® multi-label plate reader (Perkin-Elmer®), and signal intensity was calculated relative to positive and negative control wells. Cisplatin was included as the positive control. A dose-response calculation was performed in a non-linear regression fit and by using the Hill equation to calculate a concentration-response curve and 50% inhibitory concentration (IC50) values for each compound.
(§4) The average IC50 values of compounds 1-15 in multiple myeloma (MOLP-8) and triple negative breast cancer (DU4475) cells are shown in Table 1.

MOLP-8 = experiment: In vitro cell viability assay (CellTiter-Glo, ATP levels), multiple myeloma cells; type: cell-based; conditions: Homo sapiens, MOLP-8, 168 h, 7-day incubation, CellTiter-Glo, average values; read-out: MOLP-8 IC50
Experimental: as §1, §2, §3, §4

[1] = system: HCT116 (colorectal cancer) cells; experiment: Resazurin-based cell viability assay using colorectal cancer cells; conditions: Homo sapiens, HCT-116, 72 hr incubation
Experimental: Determination of Potency of Compounds in Cell Viability Assay Using Colorectal Cancer Cells
The blue dye resazurin-based assay was performed to determine cell viability and used according to manufacture protocol (Sigma®). HCT116 (colorectal cancer) cells were seeded in the DMEM medium (10% FBS serum). Approximately 1,500 cells were plated per well in 96 well plates. Cells were allowed to grow at 37° C. for 24 hr in 5% CO2 environment in a humidified incubator. Serially diluted compounds (100 μL) were added to the culture plate after 24 hr. After addition of compounds, plates were incubated for 72 hr. Experiment was terminated at the designated incubation time by replacing the medium with 100 μL of 1 mM of resazurin (Sigma®) prepared in culture medium (DMEM) and were further incubated in culture conditions for 4-6 hours. Fluorescence was recorded using a multimodal plate reader (Biotek Synergy Neo®) at an excitation wavelength of 535 nm and emission wavelength of 590 nm to obtain relative fluorescence units. Data analysis was done by subtracting the background fluorescence (medium blank) value from each reading and then normalizing with the vehicle control (DMSO treated cells) to obtain percent survival/proliferation. IC50 was calculated from percent survival values using GraphPad Prism® (see Table 1).

[2] = 7-day incubation, CellTiter-Glo, average values

Structure (SMILES)	IC50 (DU4475; [2])	IC50 (MOLP-8)	IC50 [1]	IC50 (DU4475)
C/C(=C\c1cnn(C)c1)C(=O)N1CCC=CC1=O [Compound 69, 1-[(2E)-2-methyl-3-(1-methyl-1H-pyrazol-4-yl)prop-2-enoyl]-5,6-dihydropyridin-2(1H)-one]	4.01 µM	1.98 µM	14 µM	
O=C1C=CC(O)CN1C(=O)/C=C/c1ncccn1 (stereo not drawn) [Compound 32, 5-hydroxy-1-[(2E)-3-(pyrimidin-2-yl)prop-2-enoyl]-5,6-dihydropyridin-2(1H)-one]	1.49 µM	0.38 µM	7.2 µM	
C/C(=C/C1CCNCC1)C(=O)N1CCC=CC1=O [Compound 87, (Z)-1-(2-methyl-3-(piperidin-4-yl)acryloyl)-5,6-dihydropyridin-2(1H)-one 2,2,2-trifluoroacetate]	5.53 µM	3.66 µM	10.1 µM	
O=C1C=CCCN1C(=O)/C=C/C1CC1 [Compound 18, (E)-1-(3-cyclopropylacryloyl)-5,6-dihydropyridin-2(1H)-one]	2.05 µM	0.68 µM	14.2 µM	
NC(=O)N1CCC(/C=C/C(=O)N2CCC=CC2=O)CC1 [Compound 68, (E)-4-(3-oxo-3-(6-oxo-3,6-dihydropyridin-1(2H)-yl)prop-1-en-1-yl)piperidine-1-carboxamide]	1.55 µM	0.67 µM	7.38 µM	
COc1cc(/C=C/C(=O)N2CC(O)C=CC2=O)cc2c1OCCO2 (stereo not drawn) [Compound 25, 5-hydroxy-1-[(2E)-3-(8-methoxy-2,3-dihydro-1,4-benzodioxin-6-yl)prop-2-enoyl]-5,6-dihydropyridin-2(1H)-one]	1.77 µM	0.37 µM	4.61 µM	
CC(C)(C)OC(=O)N1CCC(/C=C(/C(=O)N2CCC=CC2=O)c2ccccc2)CC1 [Compound 91, (E)-tert-butyl 4-(3-oxo-3-(2-oxo-5,6-dihydropyridin-1(2H)-yl)-2-phenylprop-1-enyl)piperidine-1-carboxylate]		3.2 µM	9.16 µM	4.14 µM
O=C1C=CCCN1C(=O)/C=C/c1cn[nH]c1 [Compound 89, (E)-1-(3-(1H-pyrazol-4-yl)acryloyl)-5,6-dihydropyridin-2(1H)-one]	8.41 µM	3.58 µM	2.7 µM	
O=C1C=CCCN1C(=O)C=C(c1ccccc1)c1ccccc1 [Compound 29, 1-(3,3-diphenylacryloyl)-5,6-dihydropyridin-2(1H)-one]	1.72 µM	2.7 µM	6.4 µM	
C/C(=C/C1CCN(C(=O)OC(C)(C)C)CC1)C(=O)N1CCC=CC1=O [Compound 71, (Z)-tert-butyl 4-(2-methyl-3-oxo-3-(2-oxo-5,6-dihydropyridin-1(2H)-yl)prop-1-enyl)piperidine-1-carboxylate]	4.67 µM	3.91 µM	13.6 µM	
Cn1cc(/C=C/C(=O)N2CCC=CC2=O)cn1 [Compound 56, (E)-1-(3-(1-methyl-1H-pyrazol-4-yl)acryloyl)-5,6-dihydropyridin-2(1H)-one]	1.38 µM	0.6 µM	3.6 µM	
O=C1C=CCCN1C(=O)/C=C/c1ncc2c(n1)OCCO2 [Compound 80, (E)-1-(3-(6,7-dihydro-[1,4]dioxino[2,3-d]pyrimidin-2-yl)acryloyl)-5,6-dihydropyridin-2(1H)-one]	1.8 µM	1.15 µM	3.21 µM	
O=C1C=CCCN1C(=O)/C=C/c1cnn(C2CC2)c1 [Compound 86, (E)-1-(3-(1-cyclopropyl-1H-pyrazol-4-yl)acryloyl)-5,6-dihydropyridin-2(1H)-one]	1.67 µM	0.85 µM	3.83 µM	
O=C1C=CCCN1C(=O)/C=C/c1cnn(CC(F)(F)F)c1 [Compound 90, 1 11-{(2E)-3-[1-(2,2,2-trifluoroethyl)-1H-pyrazol-4-yl]prop-2-enoyl}-5,6-dihydropyridin-2(1H)-one]	1.47 µM	0.44 µM	7.07 µM	

Second part, led by results:

IC50 (DU4475; [2])	IC50 (MOLP-8)	IC50 [1]	Structure (SMILES)	IC50 (DU4475)
0.44 µM	0.38 µM	1.1 µM	O=C(Nc1ccc(F)cc1)N1CCC(/C=C/C(=O)N2CCC=CC2=O)CC1 [Compound 58, N-(4-fluorophenyl)-4-[(1E)-3-oxo-3-(6-oxo-3,6-dihydropyridin-1(2H)-yl)prop-1-en-1-yl]piperidine-1-carboxamide]	
0.95 µM	2.12 µM	1.9 µM	O=C1C=CCCN1C(=O)C=C1c2ccccc2-c2ccccc21 [Compound 10, 1-(2-(9H-fluoren-9-ylidene)acetyl)-5,6-dihydropyridin-2(1H)-one]	
0.59 µM	0.52 µM	1.9 µM	O=C1C=CCCCN1C(=O)/C=C/c1cccnc1 [Compound 4, (E)-1-(3-(pyridin-3-yl)acryloyl)-1,5,6,7-tetrahydro-2H-azepin-2-one]	
0.5 µM	0.5 µM	0.88 µM	O=C1C=CCCCN1C(=O)/C=C/c1ccc2ccccc2n1 [Compound 15, (E)-1-(3-(quinolin-2-yl)acryloyl)-1,5,6,7-tetrahydro-2H-azepin-2-one]	
0.92 µM	0.97 µM	5.7 µM	CC(=O)N1CCC(/C=C/C(=O)N2CCC=CC2=O)CC1 [Compound 9, (E)-1-(3-(1-acetylpiperidin-4-yl)acryloyl)-5,6-dihydropyridin-2(1H)-one]	
0.83 µM	0.58 µM	1.96 µM	COc1cc(/C=C(\C)C(=O)N2CCC=CC2=O)cc2c1OCCO2 [Compound 55, 1-[(2E)-3-(8-methoxy-2,3-dihydro-1,4-benzodioxin-6-yl)-2-methylprop-2-enoyl]-5,6-dihydropyridin-2(1H)-one]	
1.03 µM	0.23 µM	0.92 µM	O=C1C=CCCCN1C(=O)/C=C/C1CCNCC1 [Compound 38, (E)-1-(3-(piperidin-4-yl)acryloyl)-6,7-dihydro-1H-azepin-2(5H)-one]	
1 µM	0.66 µM	2.58 µM	O=C1C=CCCN1C(=O)/C=C/C1CCN(c2ccccn2)CC1 [Compound 74, (E)-1-(3-(1-(pyridin-2-yl)piperidin-4-yl)acryloyl)-5,6-dihydropyridin-2(1H)-one]	
0.58 µM	0.5 µM	1.9 µM	O=C1C=CCCN1S(=O)(=O)/C=C/c1cccnc1 [Compound 11, (E)-1-((2-(pyridin-3-yl)vinyl)sulfonyl)-5,6-dihydropyridin-2(1H)-one]	
0.56 µM	0.27 µM	1.55 µM	O=C1C=CCCCN1C(=O)/C=C/c1ccc2c(n1)OCCO2 [Compound 31, (E)-1-(3-(2,3-dihydro-[1,4]dioxino[2,3-b]pyridin-6-yl)acryloyl)-1,5,6,7-tetrahydroazepin-2-one]	
1.3 µM	0.56 µM	4.07 µM	CC1(C)C=CC(=O)N(C(=O)/C=C/c2ncccn2)C1 [Compound 33, (E)-5,5-dimethyl-1-(3-(pyrimidin-2-yl)acryloyl)-5,6-dihydropyridin-2(1H)-one]	
0.53 µM	0.28 µM	1.27 µM	CC1C=CC(=O)N(C(=O)/C=C/c2ncccn2)C1 (stereo not drawn) [Compound 43, (E)-5-methyl-1-(3-(pyrimidin-2-yl)acryloyl)-5,6-dihydropyridin-2(1H)-one]	
0.58 µM	0.31 µM	1.73 µM	CC(C)(C)CN1CCC(/C=C/C(=O)N2CCC=CC2=O)CC1 [Compound 62, (E)-1-(3-(1-neopentylpiperidin-4-yl)acryloyl)-5,6-dihydropyridin-2(1H)-one]	
0.56 µM	0.44 µM	2.4 µM	O=C1C=CCCCN1C(=O)/C=C/c1cnccn1 [Compound 6, (E)-1-(3-(pyrazin-2-yl)acryloyl)-1,5,6,7-tetrahydro-2H-azepin-2-one]	
1.05 µM	0.49 µM	1.35 µM	O=C1C=CCCN1C(=O)/C=C/C1CCN(CC2CC2)CC1 [Compound 44, (E)-1-(3-(1-(cyclopropylmethyl)piperidin-4-yl)acryloyl)-5,6-dihydropyridin-2(1H)-one]	
0.96 µM	0.76 µM	3.4 µM	O=C1C=CCCN1C(=O)/C=C/C1CCN(c2ncccn2)CC1 [Compound 67, 1-{(2E)-3-[1-(pyrimidin-2-yl)piperidin-4-yl]prop-2-enoyl}-5,6-dihydropyridin-2(1H)-one]	
